# Measurements as given in patent US9176153B2, “Prevention therapy and prognosis/monitoring in sepsis and septic shock” (NEDERLANDSE ORGANISATIE VOOR […] ONDERZOEK TNO, priority 2002, dated 2015).
# “Also recorded” adds a separate entry of the source.
# B1: APDLSGTLESIPDKLKEFGNTLEDKARAAIEHIKQKEILTKTRAWFSEAFGKVKEKLKTTFS (protein)
# chain: APDLSGTLESIPDKLKEFGNTLEDKARAAIEHIKQKEILTKTRAWFSEAFGKVKEKLKTTFS
# modifications: Muss p.; SITE (1)..(62) primary amino acid sequence of apoCI
# notes: endogenous mouse apolipoprotein CI in murine plasma
# Key:
# [1] = test system: LPS Re595; assay: liver uptake and serum residence of 125I-LPS after intravenous injection in mice; assay type: in vivo, Wild-type (C57B1/6) mice; details: for effect on behavior of 125I-LPS after intravenous injection (liver uptake, residence in blood): 125I-LPS Re595 10 μg/kg, LPS:apoCI 1:0.2 to 1:16, LPS:albumin 1:16
# Procedure: Wild-type (C57B1/6) mice were anesthetized and, via the lower vena cava, injected intravenously with radioactively (^125I) labeled LPS Re595 (10 μg/kg) without, and with, respectively, apoCI (molar ratio LPS:apoCI=1:0.2, 1:0.5, 1:1 and 1:16) and bovine serum albumin (molar ratio LPS:albumin=1:16). Blood samples and bits of liver tissue were taken at t=2, 5, 10, 20 and 30 minutes after injection. After this, the mice were sacrificed. Next, the amounts of LPS in the blood sera and liver samples were quantified on the basis of the amount of radioactive radiation. Also, a serum sample was taken 30 minutes after injection of LPS:apoCI (1:1) and subjected to agarose gel electrophoresis to study the distribution of the ^125I-LPS over the various lipoproteins. Lipoprotein lipids were visualized with the aid of Sudan Black, and ^125I-LPS by means of autoradiography. In FIGS. 6A and 6B the amounts of ^125I-LPS in the liver and the blood serum, respectively, are plotted as a percentage of the injected dose against time (n=3.+−.SEM). […] Already at a molar ratio of 1:1, the uptake of LPS by the liver was reduced 8-fold. The strong binding of apoCI to LPS (see Example 2) therefore proves to be relevant in the blood too.
# [2] = test system: FITC-LPS Re595; assay: monomerization of FITC-LPS by murine plasma with different apoCI levels; assay type: biochemical, mouse
# Procedure: We have determined the effect of the apoCI level in murine plasma on monomerization of FITC-LPS as described in Example 2. For that purpose, FITC-LPS was incubated with plasma that had been isolated from wild-type mice, genetically modified mice which are deficient for apoCI (apocl^−/−), or genetically modified mice which express the human apoCI hemizygote (APOC1^+/0) or homozygote (APOC1^+/+).
# FITC-LPS Re595 (100 ng) was incubated with plasma (0.125%) isolated from the blood of the various mouse types, after which the occurrence of fluorescence was followed in time with the aid of a fluorimeter. The expression of human apoCI in mouse plasma led to an apoCI-dose dependent increase of the FITC-LPS monomerization, which was 32% at a maximum. […] This indicates not only that mouse-apoCI, like human apoCI, is capable of monomerizing LPS, but especially also that the endogenous presence of apoCI contributes for a considerable part to the total LPS-disaggregated capacity of mouse plasma.
# [3] = test system: FITC-LPS Re595; assay: monomerization of FITC-LPS by pure apolipoprotein (fluorescence dequenching); assay type: biochemical; details: FITC-LPS Re595 100 ng, molar ratios 1:1, 1:5, 1:10 and 1:20
# Procedure: Finally, the effect of apoCI on the monomerization rate of LPS was studied. […] FITC-LPS Re595 (100 ng) was incubated with pure human apoCI (in molar ratios 1:1, 1:5, 1:10 and 1:20), after which the occurrence of fluorescence was followed in time with the aid of a fluorimeter.
# [4] = test system: LPS Re595 (Salmonella minnesota); assay: agarose gel electrophoresis of 125I-LPS incubated with human apoCI; assay type: binding
# Procedure: LPS Re595 (Salmonella minnesota) was radioactively labeled with ^125I as described (Rensen, 1997) and incubated (30 min at 37° C.) with increasing amounts of human apoCI which has been isolated from human blood (Tournier, 1984). Next, the incubation volumes were transferred to an agarose gel (position Rf 0), after which, for 2 hours, an electrophoretic field was applied (so-called agarose gel electrophoresis). After electrophoresis, the ^125I-LPS was visualized by means of autoradiography. Through its negative charge, LPS tends to migrate to the positive pole (anode); which, however, is prevented in that the LPS forms large micellary structures that cannot pass the relatively small pores formed by the agarose matrix.
# Also, the effect of increasing amounts of LPS on the migration of a fixed amount of apoCI was determined. For that purpose, the apoCI was visualized in the gel after electrophoresis by means of immunoblotting with a horseradish peroxidase-conjugated antibody directed against human apoCI (Academy Bio-Medical Company, Houston, USA; cat. 31H-G1b).
# [5] = test system: LPS; assay: LPS-induced inhibition of apolipoprotein-specific sandwich ELISA; assay type: binding
# Procedure: The apoCI level in blood plasma can be established in any suitable manner. Preferably, the apoCI level is determined with a sandwich Enzyme-Linked ImmunoSorbent Assay (sandwich ELISA). To this end, for instance 96-wells plates (medium-binding plates; Costar) are coated with a (10,000-fold dilution of a) polyclonal antibody to human apoCI generated in goat (goat-anti human apoCI; Academy Bio-Medical Company, Houston, USA; cat. 31A-Glb). Next, human blood plasma or serum is added (100,000-300,000-fold dilution), whereby the apoCI present therein is quantitatively bound by this primary antibody. […] The HRP is subsequently quantified by means of a stain reaction with 3,3′,5,5′-tetramethylbenzidine (TMB) as substrate, and the stain intensity is compared with a calibration curve which is constructed with pure human apoCI (Labconsult, Brussels, Belgium; cat. A50366H).
# A particular amount of human apoCI (0.75 ng/mL) was incubated with LPS in increasing molar ratios, after which the apoCI concentration was determined with the aid of the human apoCI-specific sandwich ELISA as described above under F. The LPS-induced inhibition of the stain reaction from which the apoCI concentration is read, was determined as a percentage of the maximum staining in the absence of LPS (n=2.+−.SEM) (FIG. 3). […]
# [6] = test system: TNFα; assay: LPS-induced TNFα response in mice; assay type: in vivo, Wild-type (C57B1/6) mice
# Procedure: Wild-type (C57B1/6) mice were injected, by way of the tail vein, with LPS Re595 (25 μg/kg) without, and with, apoCI (molar ratio LPS:apoCI=1:5). Blood samples were taken at t=0, 30, 60, 90, 120 and 180 minutes after injection. In the samples, subsequently, the amount of TNFα was quantified with the aid of a mouse-TNFα specific ELISA according to the accompanying instructions (Immunosource, Halle, Belgium, cat. no. BMS607MST), and the amounts of TNFα in the blood plasma were subsequently plotted against time.
molecule,measurement,setting,value
Bovine serum albumin: bovine serum albumin used as control protein [reference compound],"effect on behavior of 125I-LPS after intravenous injection (liver uptake, residence in blood)",[1],not effective
"TPDVSSALDKLKEFGNTLEDKARELISRIKQSELSAKMREWFSETFQKVKEKLKIDS (human apoCI peptide) [human apolipoprotein CI, 57 amino acids, 6.6 kDa, purified from human blood]",increase of the FITC-LPS monomerization by expression of human apoCI in mouse plasma,"[2]; plasma 0.125% of APOC1+/0 or APOC1+/+ mice versus wild-type, maximum",32%
same,increase in FITC fluorescence (monomerization of LPS),[3],dose-dependent monomerization of LPS micelles
same,increase in FITC fluorescence (monomerization of LPS),[3]; listed as ApoCI,increase strongly in a dose-dependent manner
same,migration of 125I-LPS in agarose gel,"[4]; 0.5 molecules of apoCI with respect to 1 molecule of LPS, incubated 30 min at 37° C., 2 hours electrophoresis",complete migration of the LPS to the positive pole
same,migration of apoCI in agarose gel on binding of LPS,"[4]; fixed amount of apoCI, increasing amounts of LPS, immunoblotting",accelerated migration of apoCI to the positive pole
same,LPS-induced inhibition of the staining reaction of apoCI-specific sandwich ELISA,"[5]; 200-fold molar excess of LPS to apoCI, apoCI 0.75 ng/mL, percentage of maximum staining in absence of LPS",more than 40%
same,"effect on behavior of 125I-LPS after intravenous injection (liver uptake, residence in blood)",[1],inhibit the decrease of LPS from the blood strongly and dose-dependently; also recorded: strongly reducing the uptake of LPS by the liver
same,reduction of uptake of LPS by the liver,"[1]; molar ratio LPS:apoCI 1:1, 125I-LPS Re595 10 μg/kg intravenously",8 fold
same,increase of the LPS-induced TNF level versus LPS alone,"[6]; LPS Re595 25 μg/kg with apoCI, molar ratio 1:5",fourfold
same,LPS-induced TNF level in blood plasma,"[6]; LPS Re595 25 μg/kg with apoCI, molar ratio LPS:apoCI 1:5, tail vein, versus 2.8 for LPS alone",10.8 ng/mL
same,TNFα induction by apoCI without LPS,[6]; equal amount of apoCI without LPS,no TNFα inducing effect
"apoCIII: apolipoprotein CIII, 79 amino acids, two amphipatic helices, comparable size and structure to apoCI [reference compound]",increase in FITC fluorescence (monomerization of LPS),[3],hardly effective
same,effect of LPS on quantification with apoCIII-specific sandwich ELISA,[5]; comparable apoCIII-specific sandwich ELISA,no effect
B1,reduction of monomerization of FITC-LPS owing to absence of mouse-apoCI,[2]; plasma 0.125% of apoc1-/- mice versus wild-type,60%
